Test results: patent US9212163B2, “Pesticidal compositions and processes related thereto” (Dow AgroSciences LLC, priority 2012, dated 2015)

Key:
[1] = system: Cabbage Looper (CL) (Trichoplusia ni); experiment: Bioassay on Cabbage Looper (CL), 128-well diet tray assay; format: in vivo; conditions: read-out: CL Rating; for pest or weed control at 50 µg/cm2: Table 5: Prophetic Compounds Subsequently Exemplified; for pest or weed control at 50 µg/cm2, 50 µg/cm2: 168 h, % mortality, second instar larvae, 50 μg/cm^2 on artificial diet, 25° C., five to seven days, average of eight wells
Method: Certain molecules disclosed in this document were tested against BAW, CEW and CL using procedures described in the following examples. In the reporting of the results, the “BAW & CEW & CL Rating Table” was used (See Table Section).
Bioassays on CL (Trichoplusia ni)
Bioassays on CL were conducted using a 128-well diet tray assay. One to five second instar CL larvae were placed in each well (3 mL) of the diet tray that had been previously filled with 1 mL of artificial diet to which 50 μg/cm^2 of the test compound (dissolved in 50 μL of 90:10 acetone-water mixture) had been applied (to each of eight wells) and then allowed to dry. Trays were covered with a clear self-adhesive cover, and held at 25° C., 14:10 light-dark for five to seven days. Percent mortality was recorded for the larvae in each well; activity in the eight wells was then averaged. The results are indicated in the table entitled “Table 4: Assay Results Part 2” (See Table Section).

[2] = system: Beet Armyworm (BAW) (Spodoptera exigua); experiment: Bioassay on Beet Armyworm (BAW), 128-well diet tray assay; format: in vivo; conditions: for pest or weed control at 50 µg/cm2 / pest or weed control at 50 µg/cm2, 50 µg/cm2: Spodoptera exigua, read-out: BAW Rating; for pest or weed control at 50 µg/cm2: Table 5: Prophetic Compounds Subsequently Exemplified; for pest or weed control at 50 µg/cm2, 50 µg/cm2: 168 h, % mortality, second instar larvae, 50 μg/cm^2 on artificial diet, 25° C., five to seven days, average of eight wells; for BAW Rating: Table 3: Assay Results Part 1
Procedure, shortened: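 Artificial diet treated with 50 μg/cm^2 compound in 90:10 acetone-water was dried, then one to five second-instar larvae were placed per well, eight wells per compound. Trays were held at 25° C., 14:10 light-dark for five to seven days, and percent mortality averaged across wells.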

SMILES	pest or weed control at 50 µg/cm2 [1]	pest or weed control at 50 µg/cm2 [2]	BAW Rating [2]	further results
N#Cc1cc(C(/C=C/c2ccc(C(=O)NC3(C(=O)NCC(F)(F)F)CC3)c(C(F)(F)F)c2)C(F)(F)F)ccc1F (centres unmarked) [Compound P515]	50 to 100%	50 to 100%		
O=C(NC1(C(=O)NCC(F)(F)F)CC1)c1ccc(/C=C/C(c2cc(Br)cc(Br)c2)C(F)(F)F)cc1C(F)(F)F (centres unmarked) [Compound P1198]	50 to 100%	50 to 100%		
O=C(NC1(C(=S)NCC(F)(F)F)CC1)c1ccc(/C=C/C(c2cc(Cl)c(Cl)c(Cl)c2)C(F)(F)F)cc1Cl (centres unmarked) [Compound P1010]	50 to 100%	50 to 100%		
O=C(NC1(C(=O)NCC(F)(F)F)CC1)c1ccc(/C=C/C(c2cccc(OC(F)(F)F)c2)C(F)(F)F)cc1C(F)(F)F (centres unmarked) [Compound P155]	50 to 100%	50 to 100%		
O=C(NC1(C(=O)NCC(F)(F)F)CC1)c1ccc(/C=C/C(c2cc(Cl)cc(Cl)c2)C(F)(F)C(F)(F)F)cc1Br (centres unmarked) [Compound P1043]	50 to 100%	50 to 100%		
O=C(NC1(C(=O)NCC(F)F)CC1)c1ccc(/C=C/C(c2cc(Cl)c(Cl)c(Cl)c2)C(F)(F)F)cc1C(F)(F)F (centres unmarked) [Compound P1015]	50 to 100%	50 to 100%		
O=C(NC1(C(=O)NCC(F)(F)F)CC1)c1ccc(/C=C/C(c2ccc(Cl)c(Cl)c2)C(F)(F)F)cc1C(F)(F)F (centres unmarked) [Compound P1095]	50 to 100%	50 to 100%		
Cc1cc(C(/C=C/c2ccc(C(=O)NC3(C(=O)NCC(F)(F)F)CC3)c(Br)c2)C(F)(F)F)ccc1F (centres unmarked) [Compound P693]	50 to 100%	50 to 100%		
O=C(NC1(C(=O)NCC(F)(F)F)CC1)c1ccc(/C=C/C(c2ccc(F)c(F)c2F)C(F)(F)F)cc1C(F)(F)F (centres unmarked) [Compound P65]	50 to 100%	50 to 100%		
O=C(NC1(C(=O)NCC(F)(F)F)CC1)c1ccc(/C=C/C(c2cc(Cl)cc(Cl)c2)C(F)(F)C(F)(F)F)cc1C(F)(F)F (centres unmarked) [Compound P1045]	50 to 100%	50 to 100%		
O=C(NC1(C(=O)NCC(F)F)CC1)c1ccc(/C=C/C(c2cc(Br)cc(Br)c2)C(F)(F)F)cc1Br (centres unmarked) [Compound P1193]	50 to 100%	50 to 100%		
O=C(NC1(C(=O)NCC(F)(F)F)CC1)c1ccc(/C=C/C(c2cc(Cl)cc(Br)c2)C(F)(F)F)cc1C(F)(F)F (centres unmarked) [Compound P380]	50 to 100%	50 to 100%		
O=C(NC1(C(=O)NCC(F)(F)F)CC1)c1ccc(/C=C/C(c2cc(F)cc(Br)c2)C(F)(F)F)cc1C(F)(F)F (centres unmarked) [Compound P200]	50 to 100%	50 to 100%		
O=C(NC1(C(=O)NCCC(F)(F)F)CC1)c1ccc(/C=C/C(c2cc(Br)cc(Br)c2)C(F)(F)F)cc1Br (centres unmarked) [Compound P1213]	50 to 100%	50 to 100%		
Cc1cc(C(/C=C/c2ccc(C(=O)NC3(C(=O)NCC(F)(F)F)CC3)c(C(F)(F)F)c2)C(F)(F)F)cc(C)c1F (centres unmarked) [Compound P335]	50 to 100%	50 to 100%		
O=C(NC1(C(=O)NCC(F)(F)F)CC1)c1ccc(/C=C/C(c2cc(F)cc(Br)c2)C(F)(F)F)cc1Br (centres unmarked) [Compound P198]	50 to 100%	50 to 100%		
O=C(NC1(C(=O)NCC(F)(F)F)CC1)c1ccc(/C=C/C(c2ccc(Br)c(Br)c2)C(F)(F)F)cc1C(F)(F)F (centres unmarked) [Compound P425]	50 to 100%	50 to 100%		
O=C(NC1(C(=O)NCC(F)(F)F)CC1)c1ccc(/C=C/C(c2cc(Br)cc(Br)c2)C(F)(F)F)cc1Br (centres unmarked) [Compound P1183]	50 to 100%	50 to 100%		
O=C(NC1(C(=O)NCC(F)(F)F)CC1)c1ccc(/C=C/C(c2ccc(Br)c(Br)c2)C(F)(F)F)cc1Br (centres unmarked) [Compound P423]	50 to 100%	50 to 100%		
O=C(NC1(C(=O)NCC(F)(F)F)CC1)c1ccc(/C=C/C(c2cccc(OC(F)(F)F)c2)C(F)(F)F)cc1Br (centres unmarked) [Compound P153]	50 to 100%	50 to 100%		
O=C(NC1(C(=O)NCC(F)(F)F)CCC1)c1ccc(/C=C/C(c2cc(Cl)c(Cl)c(Cl)c2)C(F)(F)F)cc1Br (centres unmarked) [Compound F5]				pest or weed control at 50 µg/cm2, 50 µg/cm2 [1]: 50 to 100%; pest or weed control at 50 µg/cm2, 50 µg/cm2 [2]: 50 to 100%
O=C(NC1CC1(F)F)c1ccc(/C=C/C(c2cc(Cl)c(Cl)c(Cl)c2)C(F)(F)F)cc1Br (centres unmarked) [Compound P31]	50 to 100%	50 to 100%		

SMILES	pest or weed control at 50 µg/cm2 [1]	pest or weed control at 50 µg/cm2 [2]	BAW Rating [2]	further results
O=C(NC1(C(=O)NCC(F)(F)F)CC1)c1ccc(/C=C/C(c2cc(Cl)cc(Br)c2)C(F)(F)F)cc1Br (centres unmarked) [Compound P378]	50 to 100%	50 to 100%		
O=C(NC1(C(=O)NCCC(F)(F)F)CC1)c1ccc(/C=C/C(c2cc(Cl)c(Cl)c(Cl)c2)C(F)(F)F)cc1C(F)(F)F (centres unmarked) [Compound P1035]	50 to 100%	50 to 100%		
O=C(NC1(C(=O)NCC(F)(F)F)CC1)c1ccc(/C=C/[C@@H](c2cc(Cl)c(Cl)c(Cl)c2)C(F)(F)F)cc1C(F)(F)F (single isomer, unassigned) [Compound F8B]				pest or weed control at 50 µg/cm2, 50 µg/cm2 [1]: 50 to 100%; pest or weed control at 50 µg/cm2, 50 µg/cm2 [2]: 50 to 100%
O=C(NC1(C(=O)NCC(F)(F)F)CC1)c1ccc(/C=C/C(c2cc(Cl)cc(Cl)c2)C(F)(F)F)cc1C(F)(F)F (centres unmarked) [Compound P1050]	50 to 100%	50 to 100%		
O=C(NC1(C(=O)NCC(F)(F)F)CC1)c1ccc(/C=C/C(c2ccc(Cl)c(Cl)c2)C(F)(F)F)cc1Br (centres unmarked) [Compound P1093]	50 to 100%	50 to 100%		
O=C(CNC(=O)c1ccc(/C=C\C(c2cc(Cl)c(Cl)c(Cl)c2)C(F)(F)F)cc1Br)NCC(F)(F)F (centres unmarked) [AC95, (Z)-2-Bromo-N-(2-oxo-2-((2,2,2-trifluoroethyl)amino)ethyl)-4-(4,4,4-trifluoro-3-(3,4,5-trichlorophenyl)but-1-en-1-yl)benzamide]			A (50-100)	
Cc1cc(/C=C/C(c2cc(Cl)cc(Cl)c2)C(F)(F)F)ccc1C(=O)NCc1ccccc1F (centres unmarked) [AC9]			A (50-100)	
Cc1cc(/C=C/C(c2cc(Cl)cc(Cl)c2)C(F)(F)F)ccc1C(=O)NC1CSC1 (centres unmarked) [AC10]			A (50-100)	
Cc1cc(/C=C/C(c2cc(Cl)c(Cl)c(Cl)c2)C(F)(F)F)ccc1C(=O)NCc1cnc(Cl)s1 (centres unmarked) [AC26]			A (50-100)	
O=C(NCc1ccc(Cl)nc1)c1ccc(/C=C/C(c2cc(Cl)c(Cl)c(Cl)c2)C(F)(F)F)cc1Br (centres unmarked) [AC31]			A (50-100)	
Cc1cc(/C=C/C(c2cc(Cl)cc(Cl)c2)C(F)(F)F)ccc1C(=O)NCC(=O)NC1CC1 (centres unmarked) [AC40]			A (50-100)	
O=C(NNc1ccc(/C=C/C(c2cc(Cl)c(Cl)c(Cl)c2)C(F)(F)F)cc1)C1CC1 (centres unmarked) [CC50, (E)-N′-(4-(4,4,4-Trifluoro-3-(3,4,5-trichlorophenyl)but-1-en-1-yl)phenyl)cyclopropanecarbohydrazide]			A (50-100)	
Cc1cc(/C=C/C(c2cc(Cl)cc(Cl)c2)C(F)(F)F)ccc1C(=O)NCc1cncnc1 (centres unmarked) [AC39, 4-((E)-3-(3,5-Dichlorophenyl)-4,4,4-trifluorobut-1-enyl)-2-methyl-N-((pyrimidin-5-yl)methyl)benzamide]			A (50-100)	
O=C(CC(F)(F)F)NCC(=O)n1ccc2cc(/C=C/C(c3cc(Cl)c(F)c(Cl)c3)C(F)(F)F)ccc21 (centres unmarked) [BC13, (E)-N-(2-(5-(3-(3,5-Dichloro-4-fluorophenyl)-4,4,4-trifluorobut-1-en-1-yl)-1H-indol-1-yl)-2-oxoethyl)-3,3,3-trifluoropropanamide]			A (50-100)	
Cc1cc(/C=C/C(c2cc(Cl)cc(Cl)c2)C(F)(F)F)ccc1C(=O)NCc1ccc(Cl)cc1 (centres unmarked) [AC48]			A (50-100)	
COC(/C=C/c1ccc(-n2cncn2)cc1)(c1cc(Cl)cc(Cl)c1)C(F)(F)F (centres unmarked) [DC70, (E)-1-(4-(3-(3,5-Dichlorophenyl)-4,4,4-trifluoro-3-methoxybut-1-en-1-yl)phenyl)-1H-1,2,4-triazole]			A (50-100)	
Cc1cc(/C=C/C(c2cc(Cl)c(Cl)c(Cl)c2)C(F)(F)F)ccc1C(=O)NCc1ccc(Cl)nc1 (centres unmarked) [AC22]			A (50-100)	
Cc1cc(/C=C/C(c2cc(Cl)cc(Cl)c2)C(F)(F)F)ccc1C(=O)NCc1nccn1C (centres unmarked) [AC50]			A (50-100)	
Cc1cc(/C=C/C(c2cc(Cl)cc(Cl)c2)C(F)(F)F)ccc1C(=O)NN(C)c1ccccc1F (centres unmarked) [AC45]			A (50-100)	
Cc1cc(/C=C/C(c2cc(Cl)cc(Cl)c2)C(F)(F)F)ccc1C(=O)N(C)Cc1ccc(Cl)nc1 (centres unmarked) [AC117]			A (50-100)	
O=C(NC1CSC1)c1ccc(/C=C/C(c2cc(Cl)c(Cl)c(Cl)c2)C(F)(F)F)cc1Br (centres unmarked) [AC32]			A (50-100)	
O=C(CC(F)(F)F)NNc1ccc(/C=C/C(c2cc(Cl)c(Cl)c(Cl)c2)C(F)(F)F)cc1 (centres unmarked) [CC51]			A (50-100)	
